We go through 6 compounds from PubChem BioAssay AID324 (DTP/NCI, 2004).

Values joined by “and” are separate entries in the source; they are usually repeats but may differ in a detail not shown here. Equal entries are not always repeated. Toxic doses and inconclusive results are not listed.

The experiment deals with CD2F1 mice, AMSA-resistant P388 leukemia ip, median survival T/C. Briefly: NCI In Vivo Anticancer Drug Screen. Data for tumor model P388 Leukemia resistant to AMSA; NSC 249992 (intraperitoneal) in CD2F1 (CDF1) mice. The settings on record: endpoint: median survival time, higher = longer survival. As to the method: The antitumor activity of compounds was measured in mice bearing transplantable tumors. Survival or tumor size were measured and the results are expressed as the measurement made in the treated group (T) divided by the measurement made in the vehicle treated control group (C). The tumor model used in this assay is P388 Leukemia resistant to AMSA; NSC 249992 (intraperitoneal) in CD2F1 (CDF1) mice

The mark [1] stands for this setting: dose: 32.4 mg/kg/injection, schedule: Q04DX002 (ip), vehicle: saline.
Setting [2] is: dose: 54.0 mg/kg/injection, schedule: Q04DX002 (ip), vehicle: saline.
The mark [3] stands for this setting: dose: 90.0 mg/kg/injection, schedule: Q04DX002 (ip), vehicle: saline.

Take `N[C@@H](Cc1ccc(N(CCCl)CCCl)cc1)C(=O)O`: the T/C is 208 % of control (dose: 1.62 mg/kg/injection, schedule: Q04DX003 (ip), vehicle: saline); 211 % of control and 212 % of control (dose: 1.94 mg/kg/injection, schedule: Q04DX002 (ip), vehicle: saline); 211 % of control (dose: 2.7 mg/kg/injection, schedule: Q04DX003 (ip), vehicle: saline); 259 % of control and 262 % of control (dose: 3.24 mg/kg/injection, schedule: Q04DX002 (ip), vehicle: saline); 391 % of control (dose: 4.5 mg/kg/injection, schedule: Q04DX003 (ip), vehicle: saline); 416 % of control (dose: 5.4 mg/kg/injection, schedule: Q04DX002 (ip), vehicle: saline). Moreover, the T/C is, setting by setting: (dose: 7.5 mg/kg/injection, schedule: Q04DX003 (ip), vehicle: saline) 391 % of control; (dose: 9.0 mg/kg/injection, schedule: Q04DX002 (ip), vehicle: saline) 416 % of control; (dose: 12.5 mg/kg/injection, schedule: Q04DX003 (ip), vehicle: saline) 391 % of control; (dose: 15.0 mg/kg/injection, schedule: Q04DX002 (ip), vehicle: saline) 120 % of control and 86 % of control.
With `Cc1c2ccncc2c(C)c2c1[nH]c1ccccc12`, the T/C reads like this: (dose: 7.78 mg/kg/injection, schedule: Q04DX003 (ip), vehicle: saline with Tween-80) 100 % of control; (dose: 13.0 mg/kg/injection, schedule: Q04DX003 (ip), vehicle: saline with Tween-80) 87 % of control; (dose: 13.0 mg/kg/injection, schedule: Q04DX003 (ip), vehicle: water) 96 % of control; (dose: 21.6 mg/kg/injection, schedule: Q04DX003 (ip), vehicle: saline with Tween-80) 100 % of control; (dose: 21.6 mg/kg/injection, schedule: Q04DX003 (ip), vehicle: water) 100 % of control; (dose: 25.9 mg/kg/injection, schedule: Q04DX002 (ip), vehicle: saline with Tween-80) 100 % of control. Besides, the T/C (dose: 36.0 mg/kg/injection, schedule: Q04DX003 (ip), vehicle: saline with Tween-80) is 101 % of control; the T/C (dose: 36.0 mg/kg/injection, schedule: Q04DX003 (ip), vehicle: water) was 101 % of control; the T/C (dose: 43.2 mg/kg/injection, schedule: Q04DX002 (ip), vehicle: saline with Tween-80) is 98 % of control; the T/C (dose: 60.0 mg/kg/injection, schedule: Q04DX003 (ip), vehicle: saline with Tween-80) was 109 % of control; the T/C (dose: 60.0 mg/kg/injection, schedule: Q04DX003 (ip), vehicle: water) was 89 % of control; the T/C (dose: 72.0 mg/kg/injection, schedule: Q04DX002 (ip), vehicle: saline with Tween-80) was 95 % of control. Besides, the T/C was 95 % of control (dose: 120.0 mg/kg/injection, schedule: Q04DX002 (ip), vehicle: saline with Tween-80) and 95 % of control (dose: 200.0 mg/kg/injection, schedule: Q04DX002 (ip), vehicle: saline with Tween-80).
For the compound `CO[C@H](C(=O)[C@@H](O)[C@@H](C)O)[C@@H]1Cc2cc3cc(OC4CC(OC5CC(O)C(O)C(C)O5)C(O)C(C)O4)c(C)c(O)c3c(O)c2C(=O)[C@H]1OC1CC(OC2CC(OC3CC(C)(O)C(O)C(C)O3)C(O)C(C)O2)C(O)C(C)O1` (stereo partly drawn), the T/C runs as follows: (dose: 0.13 mg/kg/injection, schedule: Q01DX005 (ip), vehicle: saline) 112 % of control; (dose: 0.22 mg/kg/injection, schedule: Q01DX005 (ip), vehicle: saline) 113 % of control; (dose: 0.36 mg/kg/injection, schedule: Q01DX005 (ip), vehicle: saline) 118 % of control.
`CC(=O)N(C)c1ccc(Nc2cc(C)[nH]c3ccc4ncnc4c23)cc1`: the T/C (dose: 19.4 mg/kg/injection, schedule: Q04DX002 (ip), vehicle: saline) is 101 % of control; the T/C (dose: 20.7 mg/kg/injection, schedule: Q04DX002 (ip), vehicle: saline) was 104 % of control; the T/C under setting [1] was 100 % of control; the T/C (dose: 34.6 mg/kg/injection, schedule: Q04DX002 (ip), vehicle: saline) was 112 % of control; the T/C under setting [2] is 119 % of control; the T/C (dose: 57.6 mg/kg/injection, schedule: Q04DX002 (ip), vehicle: saline) is 117 % of control. Further, the T/C runs as follows: under setting [3], 113 % of control; (dose: 96.0 mg/kg/injection, schedule: Q04DX002 (ip), vehicle: saline) 109 % of control.
As for `O=P1(N(CCCl)CCCl)NCCCO1` (stereo not drawn), the T/C is 196 % of control (dose: 16.2 mg/kg/injection, schedule: Q04DX003 (ip), vehicle: saline); 220 % of control (dose: 25.9 mg/kg/injection, schedule: Q04DX002 (ip), vehicle: saline); 240 % of control (dose: 27.0 mg/kg/injection, schedule: Q04DX003 (ip), vehicle: saline); 243 % of control under setting [1]; 333 % of control (dose: 43.2 mg/kg/injection, schedule: Q04DX002 (ip), vehicle: saline); 348 % of control (dose: 45.0 mg/kg/injection, schedule: Q04DX003 (ip), vehicle: saline). For the same compound, the T/C runs as follows: under setting [2], 305 % of control; (dose: 72.0 mg/kg/injection, schedule: Q04DX002 (ip), vehicle: saline) 407 % of control; (dose: 75.0 mg/kg/injection, schedule: Q04DX003 (ip), vehicle: saline) 348 % of control; under setting [3], 416 % of control; (dose: 120.0 mg/kg/injection, schedule: Q04DX002 (ip), vehicle: saline) 416 % of control; (dose: 125.0 mg/kg/injection, schedule: Q04DX003 (ip), vehicle: saline) 348 % of control. Besides, the T/C reads like this: (dose: 150.0 mg/kg/injection, schedule: Q04DX002 (ip), vehicle: saline) 416 % of control; (dose: 200.0 mg/kg/injection, schedule: Q04DX002 (ip), vehicle: saline) 164 % of control.
In the case of `O=c1[nH]cc(F)c(=O)[nH]1`, the T/C is 155 % of control (dose: 21.6 mg/kg/injection, schedule: Q04DX003 (ip), vehicle: saline); 165 % of control (dose: 36.0 mg/kg/injection, schedule: Q04DX003 (ip), vehicle: saline); 168 % of control (dose: 60.0 mg/kg/injection, schedule: Q04DX003 (ip), vehicle: saline); 170 % of control (dose: 100.0 mg/kg/injection, schedule: Q04DX003 (ip), vehicle: saline).
